Measured values from patent publication US20120252796A1, “COMPOUNDS FOR THE TREATMENT OF DYSLIPIDEMIA AND RELATED DISEASES” (priority 2009, published 2012).

How the values were obtained:
[1] = target: T1, PCSK9 (Homo sapiens, UniProt Q8NBP7); assay: PCSK9-LDLR in vitro Binding Assay (ELISA)
Description: The PCSK9-LDLR in vitro Binding Assay is a quantitative solid phase binding assay between PCSK9 and recombinant LDLR. Plates were pre-coated with a recombinant LDLR-AB domain, which binds PCSK9. Test compound at different concentration was added to the PCSK9 and added to LDLR immobilized on the wells. The amount of bound PCSK9 is measured by binding it with biotinylated anti-His-tag monoclonal antibody, followed by binding with horseradish peroxidase conjugated streptavidin substrate. The color was quantified by ELISA reader at […] which reflects the relative amount of PCSK9 that binds to LDLR in presence and absence of the inhibitor. EC50 values were calculated by nonlinear regression analysis using graph pad prism software. Each concentration point represents values in duplicates.
Target sequence in this assay (Q8NBP7 153-692): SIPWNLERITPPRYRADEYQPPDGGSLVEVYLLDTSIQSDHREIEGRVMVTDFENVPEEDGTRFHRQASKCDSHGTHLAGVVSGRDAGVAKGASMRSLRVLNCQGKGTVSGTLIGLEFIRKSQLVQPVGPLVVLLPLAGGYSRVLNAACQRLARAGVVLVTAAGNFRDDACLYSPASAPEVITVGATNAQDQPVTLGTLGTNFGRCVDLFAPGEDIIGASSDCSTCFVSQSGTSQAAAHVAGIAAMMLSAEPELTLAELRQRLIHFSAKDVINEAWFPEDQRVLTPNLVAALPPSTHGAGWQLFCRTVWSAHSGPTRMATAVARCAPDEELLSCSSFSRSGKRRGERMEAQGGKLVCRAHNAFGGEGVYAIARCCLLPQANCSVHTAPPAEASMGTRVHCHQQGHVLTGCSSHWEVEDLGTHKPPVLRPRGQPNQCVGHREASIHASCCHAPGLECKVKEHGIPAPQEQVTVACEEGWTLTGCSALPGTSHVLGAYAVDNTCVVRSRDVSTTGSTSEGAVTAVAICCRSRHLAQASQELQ
Target sequence in this assay (Q8NBP7 31-152 partner limits assumed): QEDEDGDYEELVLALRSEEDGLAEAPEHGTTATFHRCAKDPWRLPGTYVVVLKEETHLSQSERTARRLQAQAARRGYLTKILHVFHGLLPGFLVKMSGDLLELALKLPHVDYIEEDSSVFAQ

[2] = target: T1, PCSK9; assay: SPR binding studies (BIACORE3000); details: 25° C., phosphate buffer pH 7.4; compounds run at 10 nM, 100 nM and 1 micro mole, concentration of the value not stated
Description: Instrumentation: BIACORE3000 from GE Life Sciences was used and the Interaction analysis was performed at 25° C.
Buffers: phosphate buffer pH 7.4 supplied by Biacore supplemented with 0.01% dimethyl sulfoxide (DMSO) was used as running buffer during the assay.
Immobilization of Ligand: Sensor chip CM5 was used for analysis. The sensor chip consists of a carboxymethyl-modified dextran polymer linked to a gold-covered glass support. The ligand was diluted to 10 micro gram/ml in 10 mM sodium acetate, pH5.0 and immobilized to the sensor chip, using amine coupling. Running buffer without DMSO was used during immobilization. The surface was activated by injecting a solution containing 0.2M N-ethyl-N′-dimethyl aminopropyl-carbodiimide (EDC) and 50 mM N-hydroxy succinimide (NHS). The system was set for Aim for immobilization of about 1000 RU and the surface was blocked by injecting 1 Mehanolamine at pH 8.5. Then the surface was washed with 50 mM NaOH by injecting two 30 second-pulses to remove off non covalently bound ligand and to stabilize the baseline (automated procedure). Activated dextran was used as a reference surface. To ensure highest sensitivity the SPR Detector response was normalized before running the assay. By calibrating the detector at various light intensities under Conditions of total internal reflection (automated procedure). Solvent correction for DMSO was also carried to minimize the error in data.
Assay Design: A binding assay was set up for different compounds at three different concentrations (10 nM, 100 nM and 1 micro mole), and were injected over the reference and Ligand flow cells at a flow rate of 30 micro liter/min. Each cycle consisted of a 1-min waiting period for monitoring of the baseline stability and 3 minute injection of compound with a 5 minute Undisturbed dissociation phase, and the surface was regenerated with 50 mM NaoH solution. Compound responses in the reference flow cell were subtracted with that of ligand and a solvent correction run was carried in between and the binding potential of the compounds was reported as relative response units (RU).
Target sequence in this assay (Q8NBP7 153-692): as the sequence (Q8NBP7 153-692) above

[3] = tested on: HF-HC diet fed Syrian golden hamsters; assay: Lipid lowering effect in HF-HC diet fed hamster model; assay type: in vivo; parameters: concentration or dose not given beside the values; details: oral gavage once daily, day 14
From the text: In this experiment, Syrian golden hamsters which were kept on high fat—high cholesterol (HF-HC) fructose diet for 2 weeks were divided into various groups based on LDL-C and Total cholesterol levels. The treatment was given by oral gavages once daily for 14 days. The blood was collected by retro-orbital sinus puncture method under light ether anesthesia on day 0 (pretreatment), and day 14 of the treatment for lipid levels measurements. The percent change in LDL-C in compound group Vs Vehicle group was calculated.

Question: Which results are given for Cc1oc(-c2ccccc2)nc1CC1COC(C)(C(=O)NO)OC1 (single isomer, unassigned) [Example 6, N-hydroxy-2-methyl-5-c-((5-methyl-2-phenyloxazol-4-yl)methyl)-1,3-dioxane-2-carboxamide]?
Answer: % Inhibition PCSK9 ([1]; 5 µM): 10%; % Inhibition PCSK9 ([1]; 10 µM): 11%; % Inhibition PCSK9 ([1]; 100 µM): 22%; Relative response (RU) [2]: 2.65 RU

Question: Which results are given for Cc1oc(-c2ccccc2)nc1CC1COC(C)(C(=O)NO)OC1 (single isomer, unassigned) [Example 7, N-hydroxy-2-methyl-5-t-((5-methyl-2-phenyloxazol-4-yl)methyl)-1,3-dioxane-2-carboxamide]?
Answer: % Inhibition PCSK9 ([1]; Concentration 1 μM): 11%; % Inhibition PCSK9 ([1]; Concentration 10 μM): 12%; % Inhibition PCSK9 ([1]; Concentration 100 μM): 20%; % Change Vs Vehicle Control HDL-C [3]: −20.1%; % Change Vs Vehicle Control LDL-C [3]: −29.3%; % Change Vs Vehicle Control TC [3]: −29.6%; % Change Vs Vehicle Control TG [3]: −26.7%

Question: Which “% Inhibition PCSK9” value ([1]; Concentration 10 μM) does the source give for Cc1oc(-c2ccccc2)nc1CC1COC(C)(C(=O)N2CCN(C)CC2)OC1 (stereo not shown) [Example 14, (2-methyl-5-c-((5-methyl-2-phenyloxazol-4-yl)methyl)-1,3-dioxan-2-yl)(4-methylpiperazin-1-yl)methanone] here?
Answer: Its value is 41%.

Question: And the “% Inhibition PCSK9” value ([1]; Concentration 100 μM)?
Answer: Its value is 5%.

Question: And the “Relative response (RU)” value [2]?
Answer: Its value is 15.81 RU.

Question: Which “% Inhibition PCSK9” value ([1]; Concentration 10 μM) does the source give for Cc1oc(-c2ccccc2)nc1CC1COC(C)(C(=O)NCC(=O)N2CCOCC2)OC1 (stereo not shown) [Example 19, 2-methyl-5-c-((5-methyl-2-phenyloxazol-4-yl)methyl)-N-(2-morpholino-2-oxoethyl)-1,3-dioxane-2-carboxamide] here?
Answer: Its value is 23%.

Question: And the “% Inhibition PCSK9” value ([1]; Concentration 100 μM)?
Answer: The value was 25%.

Question: And the “Relative response (RU)” value [2]?
Answer: Its value is 14.1 RU.

Question: For Cc1oc(-c2ccccc2)nc1CC1COC(C)(C(=O)NCCC(=O)N2CCOCC2)OC1 (stereo not shown) [Example 26, 2-methyl-5-c-((5-methyl-2-phenyloxazol-4-yl)methyl)-N-(3-morpholino-3-oxopropyl)-1,3-dioxane-2-carboxamide], which “Relative response (RU)” value [2] is on record?
Answer: Its value is 10.3 RU.

Question: What does the source list for Cc1ccc(-c2nc(CC3COC(C)(C(=O)NO)OC3)c(C)o2)cc1 (stereo not shown) [Example 59, N-hydroxy-2-methyl-5-((5-methyl-2-(p-tolyl)oxazol-4-yl)methyl)-1,3-dioxane-2-carboxamide]?
Answer: inhibition at 1 µM ([1]; Concentration 1 μM): 26%; inhibition at 10 µM ([1]; Concentration 10 μM): 27%; inhibition at 100 µM ([1]; Concentration 100 μM): 61%; Relative response (RU) [2]: 1.36 RU

Question: Which “% Inhibition PCSK9” value ([1]; Concentration 0.1 μM) does the source give for Cc1ccc(-c2nc(CC3COC(C)(C(=O)NCC4CCOCC4)OC3)c(C)o2)cc1 (stereo not shown) [Example 64, 2-methyl-5-t-((5-methyl-2-(p-tolyl)oxazol-4-yl)methyl)-N—((tetrahydro-2H-pyran-4-yl)methyl)-1,3-dioxane-2-carboxamide] here?
Answer: Its value is 20%.

Question: And the “% Inhibition PCSK9” value ([1]; Concentration 1 μM, 1 µM)?
Answer: Its value is 23%.

Question: And the “% Inhibition PCSK9” value ([1]; Concentration 10 μM, 10 µM)?
Answer: The value was 25%.

Question: What about the “% Inhibition PCSK9” value ([1]; Concentration 100 μM, 100 µM) of the same compound?
Answer: The value was 49%.

Question: What about the “Relative response (RU)” value [2] of the same compound?
Answer: The value was 3.48 RU.

Question: Cc1oc(C(C)(C)C)nc1CC1COC(C)(C(=O)N2CCOCC2)OC1 (stereo not shown) [Example 73, (5-((2-(tert-butyl)-5-methyloxazol-4-yl)methyl)-2-methyl-1,3-dioxan-2-yl)(morpholino)methanone] was tested. Which inhibition at 1 µM ([1]; Concentration 1 μM) did it give?
Answer: The inhibition at 1 µM was 25%.

Question: What about the inhibition at 10 µM ([1]; Concentration 10 μM) of the same compound?
Answer: The inhibition at 10 µM was 27%.

Question: What about the inhibition at 100 µM ([1]; Concentration 100 μM) of the same compound?
Answer: The inhibition at 100 µM was 37%.

Question: What about the “Relative response (RU)” value [2] of the same compound?
Answer: Its value is 2.4 RU.

Question: Cc1oc(-c2ccncc2)nc1CC1COC(C)(C(=O)NO)OC1 (stereo not shown) [Example 80, N-hydroxy-2-methyl-5-c-((5-methyl-2-(pyridin-4-yl)oxazol-4-yl)methyl)-1,3-dioxane-2-carboxamide] was tested. Which “% Inhibition PCSK9” value ([1]; Concentration 1 μM, 1 µM) did it give?
Answer: The value was 32%.

Question: And the “% Inhibition PCSK9” value ([1]; Concentration 10 μM, 10 µM)?
Answer: The value was 44%.

Question: What about the “% Inhibition PCSK9” value ([1]; Concentration 100 μM, 100 µM) of the same compound?
Answer: Its value is 34%.

Question: What about the “Relative response (RU)” value [2] of the same compound?
Answer: The value was 2.64 RU.

Question: What does the source list for Cc1oc(-c2ccncc2)nc1CC1COC(C)(C(=O)N2CCOCC2)OC1 (stereo not shown) [Example 83, (2-methyl-5-t-((5-methyl-2-(pyridin-4-yl)oxazol-4-yl)methyl)-1,3-dioxan-2-yl)(morpholino)methanone]?
Answer: % Inhibition PCSK9 ([1]; Concentration 1 μM, 1 µM): 20%; % Inhibition PCSK9 ([1]; Concentration 10 μM, 10 µM): 25%; % Inhibition PCSK9 ([1]; Concentration 100 μM): 42%

Question: Cc1oc(-c2ccncc2)nc1CC1COC(C)(C(=O)NCC2CCOCC2)OC1 (stereo not shown) [Example 85, 2-methyl-5-t-((5-methyl-2-(pyridin-4-yl)oxazol-4-yl)methyl)-N—((tetrahydro-2H-pyran-4-yl)methyl)-1,3-dioxane-2-carboxamide] was tested. Which “% Inhibition PCSK9” value ([1]; Concentration 1 μM, 1 µM) did it give?
Answer: Its value is 22%.

Question: What about the “% Inhibition PCSK9” value ([1]; Concentration 10 μM, 10 µM) of the same compound?
Answer: Its value is 30%.

Question: What about the “% Inhibition PCSK9” value ([1]; Concentration 100 μM, 100 µM) of the same compound?
Answer: The value was 44%.

Question: What about the “Relative response (RU)” value [2] of the same compound?
Answer: Its value is 17.29 RU.

Question: Which “% Inhibition PCSK9” value ([1]; Concentration 10 μM, 10 µM) does the source give for Cc1oc(-c2ccncc2)nc1CC1COC(C)(C(=O)NCC(=O)N2CCOCC2)OC1 (stereo not shown) [Example 86, 2-methyl-5-c-((5-methyl-2-(pyridin-4-yl)oxazol-4-yl)methyl)-N-(2-morpholino-2-oxoethyl)-1,3-dioxane-2-carboxamide] here?
Answer: Its value is 11%.

Question: And the “% Inhibition PCSK9” value ([1]; Concentration 100 μM, 100 µM)?
Answer: Its value is 15%.

Question: What about the “Relative response (RU)” value [2] of the same compound?
Answer: The value was 14.95 RU.

Question: For Cc1oc(-c2ccncc2)nc1CC1COC(C)(C(=O)NCC(=O)N2CCOCC2)OC1 (stereo not shown) [Example 87, 2-methyl-5-t-((5-methyl-2-(pyridin-4-yl)oxazol-4-yl)methyl)-N-(2-morpholino-2-oxoethyl)-1,3-dioxane-2-carboxamide], which “% Inhibition PCSK9” value ([1]; Concentration 10 μM, 10 µM) is on record?
Answer: Its value is 12%.

Question: And the “% Inhibition PCSK9” value ([1]; Concentration 100 μM, 100 µM)?
Answer: Its value is 7%.

Question: Which “% Inhibition PCSK9” value ([1]; Concentration 10 μM, 10 µM) does the source give for Cc1oc(-c2ccncc2)nc1CC1COC(C)(C(=O)NCC(=O)NCC2CCOCC2)OC1 (stereo not shown) [Example 88, 2-methyl-5-c-((5-methyl-2-(pyridin-4-yl)oxazol-4-yl)methyl)-N-(2-oxo-2-(((tetrahydro-2H-pyran-4-yl)methyl)amino)ethyl)-1,3-dioxane-2-carboxamide] here?
Answer: Its value is 10%.

Question: What about the “% Inhibition PCSK9” value ([1]; Concentration 100 μM, 100 µM) of the same compound?
Answer: Its value is 15%.

Question: What does the source list for Cc1oc(-c2ccncc2)nc1CC1COC(C)(C(=O)NCC(=O)NCC2CCOCC2)OC1 (stereo not shown) [Example 89, 2-methyl-5-t-((5-methyl-2-(pyridin-4-yl)oxazol-4-yl)methyl)-N-(2-oxo-2-(((tetrahydro-2H-pyran-4-yl)methyl)amino)ethyl)-1,3-dioxane-2-carboxamide]?
Answer: % Inhibition PCSK9 ([1]; Concentration 10 μM, 10 µM): 7%; % Inhibition PCSK9 ([1]; Concentration 100 μM, 100 µM): 10%

Question: CC1(C(=O)NO)OCC(CCCn2c3ccccc3c3ccccc32)CO1 (stereo not shown) [Example 96, 5-c-(3-(9H-carbazol-9-yl)propyl)-N-hydroxy-2-methyl-1,3-dioxane-2-carboxamide] was tested. Which “% Inhibition PCSK9” value ([1]; Concentration 10 μM) did it give?
Answer: The value was 10%.

Question: How did the “% Inhibition PCSK9” value ([1]; Concentration 10 μM) turn out when Cc1ccc(-n2nc(C(C)(C)C)cc2CC2COC(C)(C(=O)NO)OC2)cc1 (stereo not shown) [Example 99, N-(hydroxy)-5-c-((3-(tert-butyl)-1-(p-tolyl)-1H-pyrazol-5-yl)methyl)-2-methyl-1,3-dioxane-2-carboxamide] was run?
Answer: Its value is 5%.

Question: And the “% Inhibition PCSK9” value ([1]; Concentration 100 μM)?
Answer: The value was 32%.

Question: What does the source list for Cc1ccc(-n2nc(C(C)(C)C)cc2CC2COC(C)(C(=O)N3CCN(C)CC3)OC2)cc1 (stereo not shown) [Example 105, (5-((3-(tert-butyl)-1-(p-tolyl)-1H-pyrazol-5-yl)methyl)-2-methyl-1,3-dioxan-2-yl)(4-methylpiperazin-1-yl)methanone]?
Answer: inhibition at 10 µM ([1]; Concentration 10 μM): 10%; inhibition at 100 µM ([1]; Concentration 100 μM): 40%

Question: Which “% Inhibition PCSK9” value ([1]; 10 µM) does the source give for “(2-methyl-5-c-(2-(5-methyl-2-phenyloxazol-4-yl)ethyl)-1,3-dioxan-2-yl)(piperidin-1-yl)methanone [Example 44]” here?
Answer: Its value is 14%.

Question: What about the “% Inhibition PCSK9” value ([1]; 100 µM) of the same compound?
Answer: Its value is 25%.
